Data as given in patent US8383618B2, “C2-fluoro substituted piperazine linked pyrrolo[2,1-C][1,4] benzodiazepine dimers and a process for the preparation thereof” (Council of Scientific & Industrial Research, priority 2008, dated 2013).
Where two headings read alike, the source gives them in different places.

Assays:
calf thymus (CT) DNA [1] = test: Thermal denaturation studies; assay type: binding; settings: [PBD]:[DNA] molar ratio 1:5; CT-DNA 100 μM, ligand 20 μM; sodium phosphate buffer pH 7.00
Protocol: The DNA binding affinity of the C2-Fluoro substituted piperazine linked pyrrolo[2,1c][1,4]benzodiazepine dimers were subjected to thermal denaturation studies using calf thymus (CT) DNA (Jones, G. B.; Davey, C. L.; Jenkins, T. C.; Kamal, A.; Kneale, G. G.; Neidle, S.; Webster, G. D.; Thurston, D. E. Anti-cancer Drug Des. 1990, 5, 249. McConnaughie, A. W.; Jenkins, T. C. J. Med. Chem. 1995, 38, 3488). The studies for these compounds (IXa-f) were carried out by DNA/ligand molar ratio is 1:5 the increase in the helix melting temperature (ΔTm) for each compound was examined at 0 h. […] Data for DSB-120 and SJG-136 are included in Table-3 for comparison. The synthetic DC-81 dimer (DSB-120) gives a ΔTm 10.2° C. and SJC-136 gives a […]Tm of 25° C. under identical experimental condition.

calf thymus (CT) DNA [2] = settings: [PBD]:[DNA] molar ratio 1:5; literature value; listed as SJC-136; cited from earlier work

Molecule | ΔTm after incubation at 37° C. for 0 h (calf thymus (CT) DNA [1]) [°C] | ΔTm after incubation at 37° C. for 0 h (calf thymus (CT) DNA [2]) [°C]
1,1′-{[(bisbutane-1,N-diyl)piperazine]dioxy}bis[(11aS)-2-fluoro-7-methoxy-1,2,3,11a-tetrahydro-5H-pyrrolo[2,1-c][1,4]benzodiazepine-5-one] [IXb] | 38.0 | –
C=C1C[C@H]2C=Nc3cc(OCCCOc4cc5c(cc4OC)C(=O)N4CC(=C)C[C@H]4C=N5)c(OC)cc3C(=O)N2C1 [SJG-136] | – | 25
